Experimental data from patent publication US20240043473A1, “NOOTROPIC PEPTIDES FOR TREATING LYSOSOMAL STORAGE DISEASES” (Phoenix Nest Inc., priority 2021, published 2024).
Entries after “also recorded” stand apart in the source; their conditions may differ. No end group written: not given here.

What was measured:
[1] = test system: CA1 pyramidal neurons in acute hippocampal slices from Hgsnat^Geo mice; assay: Miniature inhibitory postsynaptic currents (mIPSC), whole cell voltage clamp in acute hippocampal slices; assay type: cell-based, mouse; settings: 10 μM bath application, P14-20
Experimental: Method: Whole cell voltage clamp electrophysiology recordings (miniature synaptic currents) were conducted on CA1 pyramidal neurons in acute hippocampal slices.
Acute hippocampal slices were prepared as follows. Briefly, animals were anaesthetized deeply with isoflurane and decapitated. The brain was dissected carefully and transferred rapidly into an ice-cold (0-4° C.) solution containing the following (in mM): 250 sucrose, 2 KCl, 1.25 NaH2PO4, 26 NaHCO3, 7 MgSO4, 0.5 CaCl2 and 10 glucose, pH 7.4. […] Whole-cell patch-clamp recordings were obtained from single cells in voltage- or current-clamp mode and only 1 cell per slice was recorded to enable post-hoc identification and immunohistochemical processing. […]
After obtaining whole cell configuration, passive membrane properties were monitored for 5 min and current clamp recordings were done to measure action potential characteristics. […] Cells were voltage clamped at −70 mV for mEPSCs recording and then held at 0 mV (calculated from the reversal potential of Cl) for mIPSCs recording. […] Both mEPSCs and mIPSCs were recorded for 7 min and a running template on a stable baseline (minimum of 30 events) was used for the analysis of miniature events on MiniAnalysis. […]

[2] = test system: hippocampus CA1 pyramidal cells in hippocampal slices from Hgsnat^Geo and Hgsnat^P311L mice; assay: Evoked synaptic currents (AMPA EPSCs, NMDA EPSCs, paired pulse) by stimulating Schaffer collaterals in hippocampal slices; assay type: cell-based, mouse
Experimental: Model and Developmental time points: Hippocampal slices from Hgsnat^Geo and Hgsnat^P311L mice; P14-20.
Method: Synaptic currents (composite glutamatergic EPSCs, AMPA EPSCs and NMDA EPSCs) were evoked by stimulating Schaffer collaterals and recordings were conducted from the hippocampus CA1 pyramidal cells in hippocampal slices from Hgsnat^Geo and Hgsnat^P311L mice. Paired pulse stimulation protocol with increasing stimulus intervals was used to identify the locus of deficit.
Acute hippocampal slices were prepared as follows. Briefly, animals were anaesthetized deeply with isoflurane and decapitated. The brain was dissected carefully and transferred rapidly into an ice-cold (0-4° C.) solution containing the following (in mM): 250 sucrose, 2 KCl, 1.25 NaH2PO4, 26 NaHCO3, 7 MgSO4, 0.5 CaCl2 and 10 glucose, pH 7.4. The solution was oxygenated continuously with 95% O2 and 5% CO2, 330-340 mOsm/L. Transverse hippocampal slices (thickness, 300 μm) were cut using a vibratome (VT1000S; Leica Microsystems), transferred to a bath at room temperature (23° C.) with standard ACSF at pH 7.4 containing the following (in mM): 126 NaCl, 3 KCl, 1 NaH2PO^4, 25 NaHCO3, 2 MgSO4, 2 CaCl2), 10 glucose, continuously saturated with 95% 02 and 5% CO2 and allowed to recover for 1 h. During the experiments, slices were transferred to the recording chamber at physiological temperature (30-33° C.) continuously perfused with standard ACSF, as described above, at 2 ml/min. Pyramidal CA1 neurons from the hippocampus were identified visually using a 40× water immersion objective. Whole-cell patch-clamp recordings were obtained from single cells in voltage- or current-clamp mode and only 1 cell per slice was recorded to enable post-hoc identification and immunohistochemical processing. Recording pipettes (4-6 MΩ) were filled with a K-gluconate based solution for voltage-clamp recordings (in mM): 130 K-gluconate, 10 KCl, 5 diNa-phosphocreatine. 10 HEPES, 2.5 MgCl2, 0.5CaCl2,1 EGTA, 3 ATP-Tris, 0.4 GTP-Li, 0.3% biocytin, pH 7.2-7.4, 280-290 mOsm/L.
We further studied evoked glutamatergic EPSCs in CA1 pyramidal neurons at P14-20 by stimulating Schaffer Collateral afferents. […] The effect is aggravated at higher IPI, as both the readily releasable and reserve pools of synaptic vesicles get progressively emptied.

[3] = Preliminary studies of activity and stability of the acetylated peptide
[4] = Effect on memory and learning after intranasal administration (earlier work); assay type: in vivo; settings: 50 μg/kg BW intranasal; mice and rats
[5] = mouse, in vivo
Method: WT C57B16 4-month-old male mouse was dosed intranasally with 10 μl of 50 mM AVP6 in saline (5 μl/nostril). One hour after dosing, the mouse was anesthetized with sodium pentobarbital, and 500 μl of blood collected by cardiac puncture. Mouse was then sacrificed by cranial dislodgement and its brain and visceral organs extracted. Tissues and blood plasma were homogenized in acetonitrile (1:4, tissue/solvent ratio). The extracts were spiked with heavy isotope-labelled (Phe U-^13C9; U-^15N) AVP6 peptide as an internal standard, and analyzed by targeted LC-MS/MS, using parallel reaction monitoring on Orbitrap Exploris 480 instrument.
Peptide pharmaco-kinetics was determined by evaluation of AVP6 levels in CNS, blood and peripheral tissues at different time points (1-48 h) after intranasal delivery in the WT mice. The entire mouse brain was cut in four sections, rostral to caudal and assessed for biodistribution of AVP6 by targeted LC-MS/MS using parallel reaction monitoring. For quantification, samples were spiked with isotopically labeled (Phe U-^13C9; U-^15N) AVP6 peptide as an internal standard. Peptide levels were also measured in peripheral (liver, kidney, spleen) tissues and in blood to provide insights into peptide biodistribution and degradation rates.

[6] = test system: Hgsnat^P304L MPS IIIC mice; assay: Open Field test; assay type: in vivo, mouse; settings: 6-month-old Hgsnat^P311L (P304L) mice
[7] = 10 μM bath application, P14-20, Hgsnat^P311L (P304L) slices
[8] = single intranasal 10 μg/kg (low dose)
[9] = single intranasal 500 μg/kg (high dose)

Substance: AVP6: N-terminally acetylated Semax, a nootropic peptide having the amino acid sequence of MEHFPGP (SEQ ID NO:1) (Ac-MEHFPGP)
- mIPSC amplitude and frequency deficits [1]: did not recover deficits in mIPSC amplitude and frequency; also recorded: did not increase frequencies or amplitudes of mIPSC; also recorded: does not increase
- evoked AMPA current deficits [2, 7]: partially recovered deficits in AMPA currents; also recorded: not in AVP6-treated brain slices
- evoked NMDA current deficits [2, 7]: not in AVP6-treated brain slices
- paired pulse (PPF/PPR) deficits at lower inter-pulse intervals ([2]; 10 μM, IPI 100-200 ms Hgsnat^Geo, 100-300 ms Hgsnat^P311L): significantly recovered PPF deficits; also recorded: partially rescued deficits in the paired pulse stimulation; also recorded: is restored by treatment with AVP6
- paired pulse (PPF) deficits at higher inter-pulse intervals ([2]; 10 μM, IPI 400 and 500 ms): not at higher (400 and 500 ms) IPI
- recording lost (suggesting neurotoxicity) ([2]; 50 μM): 5 of 11
- PPF deficits at 100, 200, 300 and 400 ms IPI ([2]; 50 μM, Hgsnat^P304L slices): PPF deficits were rescued
- effect of N-terminal acetylation on activity and stability of the peptide [3]: increase the activity and stability of the peptide
- time to maximal effect on memory and learning after intranasal administration [4]: ≤ 24 h
- time the peptide level in the brain remained above the estimated acting concentration [5]: 17 h
- hyperactivity, Open Field [6, 8]: failed to rescue hyperactivity or reduced anxiety; also recorded: do not rescue hyperactivity
- reduced anxiety, Open Field [6, 8]: failed to rescue hyperactivity or reduced anxiety
- hyperactivity, Open Field [6, 9]: failed to rescue hyperactivity or reduced anxiety; also recorded: do not rescue hyperactivity
- reduced anxiety, Open Field [6, 9]: failed to rescue hyperactivity or reduced anxiety
